Experimental data as given in patent publication US10172957B2, “Acid-labile lipophilic prodrugs of cancer chemotherapeutic agents” (priority 2011, dated 2019).

Tests used:
[1] = system: MES-SA uterine sarcoma line; test: MTT-based cytotoxicity assay, MES-SA; type: cell-based, human; conditions: Homo sapiens, MES-SA, read-out: IC50 MESSA (Hs)
Source text: (§1) A second evaluation of the cytotoxicity of the acid labile, lipophilic molecular conjugates was undertaken.
(§2) These lines included a uterine sarcoma line, MES-SA, and its doxorubicin-resistant subline, MES-SA/Dx5. See W. G. Harker, F. R MacKintosh, and B. I. Sikic. Development and characterization of a human sarcoma cell line, MES-SA, sensitive to multiple drugs. Cancer Research 43: 4943-4950 (1983); W. G. Harker and B. I. Sikic. Multidrug (pleiotropic) resistance in doxorubicin-selected variants of the human sarcoma cell line MES-SA. Cancer Research 45: 4091 4096 (1985).
MES-SA/Dx5 cells express high levels of ABCB1 (MDR1) mRNA and its gene product, the P-glycoprotein. MES-SA and MES-SA/Dx5 were purchased from the American Type Culture Collection (ATCC, Manassas, Va.).

CCRF-CEM (CEM) cells = test: MTT-based cytotoxicity assay, CEM; type: cell-based, human; conditions: Homo sapiens, CCRF-CEM, read-out: IC50 CEM (HTL), CEM human T-lymphoblastoid, MTT
Source text: as §1, §2
The second set of cells tested, CCRF-CEM or simply CEM, were derived from the blood of a patient with acute lymphoblastic leukemia. G. E. Foley, H. Lazarus, S. Farber, B. G. Uzman, B. A. Boone, and R E. McCarthy. Continuous culture of human lymphoblasts from peripheral blood of a child with acute leukemia. Cancer 18: 522-529 (1965). The subline CEM/VLB100 was developed to be resistant to up to vinblastine at 100 ng/ml. W. T. Beck, T. J. Mueller, and L. R. Tanzer. Altered surface membrane glycoproteins in Vinca alkaloid-resistant human leukemic lymphoblasts. Cancer Research 39: 2070-2076 (1979). Drug resistance is achieved by overexpression of the MDR1 gene. Resistance in the CEM subline designated CEM/VM-1-5, however, is “atypical.” M. K. Danks, J. C. Yalowich, and W. T. Beck. Atypical multiple drug resistance in a human leukemic cell line selected for resistance to teniposide (VM-26). Cancer Research 47: 1297-1301 (1987). The classes of drugs included in the “classic” multiple drug resistance phenotype are Vinca alkaloids, anthracyclines, epipodophyllotoxins and antibiotics. However, CEM/VM-1-5 cells retain sensitivity to the Vinca alkaloids despite resistance and cross-resistance to etoposide, anthracyclines and mitoxantrone. Danks, M. K.; Schmidt, C. A.; Cirtain, M. C.; Suttle, D. P.; Beck, W. T., Altered catalytic activity of and DNA cleavage by DNA topoisomerase II from human leukemic cells selected for resistance to VM-26. Biochemistry 1988, 27, 8861-8869. Resistance in CEM/VM-1-5 cells is effected by over expression of the […]. CEM, CEM/VLB100 and CEM/VM-1-5 cells were obtained from Dr. WT Beck, University of Illinois at Chicago.

[2] = Estimation of maximum tolerated dose (MTD) in the mouse; conditions: in vivo, iv, mice, in lipid emulsion (INTRALIPID), survival for 30 day observation period
Protocol: Stock solutions of ART 198 and 273 and their respective acid labile, lipophilic molecular conjugates (ART 489 and ART 488, respectively) were prepared in ethanol and then diluted into a lipid emulsion (INTRALIPID®, 20% Soybean Oil, 1.2% egg yolk phospholipids, 2.25% glycerin and water) and injected intravenously into mice at various doses in milligrams per kilogram. The animals were observed daily for signs of toxicity and/or death for a period of 30 days. The MTD was defined as survival of the dosed mice for the full 30 day observation period.

COC(=O)[C@@]12OC[C@]34[C@H]([C@@H](O)[C@@H]1O)[C@@]1(C)CC(=O)C(O)=C(C)[C@@H]1C[C@H]3OC(=O)C(OC(=O)CC1(O)CCCCC1)[C@@H]24 (stereo partly drawn) [ART 198]
IC50 [1]: 47.5 ± 11 nM | IC50 (CCRF-CEM (CEM) cells): 113 ± 53 nM | MTD at 30 days [2]: 4 mg/kg

CCCCCCCCCCCCCCCC1OCC(COC(=O)O[C@@H]2C(=O)C=C(C)[C@@H]3C[C@H]4OC(=O)C(OC(=O)CC(O)(C(C)C)C(C)C)C5[C@@H](C)[C@@H](O)[C@@]6(O)OC[C@@]54C6[C@@]23C)O1 (stereo partly drawn) [ART 488]
IC50 [1]: 1.5 ± 0.7 nM | IC50 (CCRF-CEM (CEM) cells): 4 nM | MTD at 30 days [2]: 4 mg/kg

CCCCCCCCCCCCCCCC1OCC(COC(=O)OC2=C(C)[C@@H]3C[C@H]4OC(=O)C(OC(=O)CC5(O)CCCCC5)[C@H]5[C@]6(C(=O)OC)OC[C@]45[C@H]([C@@H](O)[C@@H]6O)[C@@]3(C)CC2=O)O1 (stereo partly drawn) [ART 489]
IC50 [1]: 5.5 ± 3.5 nM | IC50 (CCRF-CEM (CEM) cells): 21 ± 2 nM | MTD at 30 days [2]: 3.1 mg/kg
